Reference: patent US12441719B2, “Inhibitors of SARM1” (Disarm Therapeutics, Inc., priority 2019, dated 2025)
Read-outs that look alike come from different tables or passages of the source.

Target: T1, SARM1 (Homo sapiens, UniProt Q6SZW1)
T1 construct: AviTag […]; made in house; host or cells: NRK1-HEK293T cells, transiently transfected; the clarified sonicated lysate was used without purification
T1 sequence (Q6SZW1 with tags, fused parts or gaps): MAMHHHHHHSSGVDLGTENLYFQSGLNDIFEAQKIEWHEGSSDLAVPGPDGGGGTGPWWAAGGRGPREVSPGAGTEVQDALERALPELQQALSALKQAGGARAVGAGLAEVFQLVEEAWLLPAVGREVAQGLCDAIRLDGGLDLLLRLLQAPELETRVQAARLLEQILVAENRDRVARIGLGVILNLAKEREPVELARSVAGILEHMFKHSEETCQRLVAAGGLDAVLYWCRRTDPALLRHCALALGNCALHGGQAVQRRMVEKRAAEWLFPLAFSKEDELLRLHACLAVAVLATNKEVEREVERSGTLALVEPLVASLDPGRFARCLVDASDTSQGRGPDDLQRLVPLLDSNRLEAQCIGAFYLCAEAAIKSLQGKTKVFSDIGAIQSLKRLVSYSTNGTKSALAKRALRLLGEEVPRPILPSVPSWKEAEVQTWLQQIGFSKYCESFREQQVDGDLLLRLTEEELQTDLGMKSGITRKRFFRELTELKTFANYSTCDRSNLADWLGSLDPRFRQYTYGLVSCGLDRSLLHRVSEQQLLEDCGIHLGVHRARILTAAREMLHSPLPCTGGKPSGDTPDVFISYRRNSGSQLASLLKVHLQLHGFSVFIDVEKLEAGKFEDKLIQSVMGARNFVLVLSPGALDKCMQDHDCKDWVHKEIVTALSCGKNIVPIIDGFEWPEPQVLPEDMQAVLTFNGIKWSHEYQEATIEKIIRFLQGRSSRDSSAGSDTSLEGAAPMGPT
Test: ARM-SAM-TIR SARM1 IC50 assay (NADase activity, NAD+ cleavage)
Assay type: biochemical
Excerpt: This Example describes an assay of ARM-SAM-TTR NADase activity and use of this assay to measure the efficacy of compounds of Formula I or Formula II to block SARM1 mediated NAD+ cleavage. This assay is optimized in such a way as to characterize the efficacy of the compounds in Formula I or Formula II to inhibit SARM1 activity and to calculate an IC50 value for each compound. This assay makes use of full length SARI, which encompasses the ARM, SAM and TTR domains.
Preparation of ARM-SAM-TIR Lysate (STL)
NRK1-HEK293T cells were seeded onto 150 cm^2 plates at 20×10^6 cells per plate. The next day, the cells were transfected with 15 μg ARM-SAM-TIR expression plasmid, SEQ ID NO: 1.
The cultures were supplemented with 1 mM NR at time of transfection to minimize toxicity from ARM-SAM-TIR overexpression. Forty-eight hours after transfection, cells were harvested, pelleted by centrifugation at 1,000 rpm (Sorvall ST 16R centrifuge, Thermo Fisher), and washed once with cold PBS (0.01 M phosphate buffered saline NaCl 0.138 M; KCl 0.0027 M; pH 7.4). The cells were resuspended in PBS with protease inhibitors (cOmplete™ protease inhibitor cocktail, Roche product #11873580001) and cell lysates were prepared by sonication (Branson Sonifer 450, output=3, 20 episodes of stroke). The lysates were centrifuged (12,000×g for 10 min at 4° C.) to remove cell debris and the supernatants (containing ARM-SAM-TIR protein) were stored at −80° C. for later use in the in vitro ARM-SAM-TIR NADase assay (see below). Protein concentration was determined by the Bicinchoninic (BCA) method and used to normalize lysate concentrations.
ARM-SAM-TIR IC50 Assay of Formula I or Formula II Compounds.
The enzymatic assay was performed in a 384-well polypropylene plate in Dulbecco's PBS buffer in a final assay volume of 20 μL. ARM-SAM-TIR lysate with a final concentration of 5 μg/mL was pre-incubated with the respective compound at 1% DMSO final assay concentration over 2 h at room temperature. The reaction was initiated by addition of 5 μM final assay concentration of NAD+ as substrate. After a 2 hr room temperature incubation, the reaction was terminated with 40 μL of stop solution of 7.5% trichloroactetic acid in acetonitrile. The NAD+ and ADPR concentrations were analyzed by a RapidFire High Throughput Mass Spectrometry System (Agilent Technologies, Santa Clara, CA) using an API4000 triple quadrupole mass spectrometer (AB Sciex Framingham, MA).

[1] = ARM-SAM-TIR lysate 5 μg/mL from NRK1-HEK293T cells, 2 h pre-incubation with compound, 5 μM NAD+, 2 hr room temperature, NAD+ and ADPR by RapidFire mass spectrometry, read-out: SARM1 IC50

SMILES | IC50 | IC50 [1]
CC(C)(C)OC(=O)N1C2CC1CN(c1cc(C#N)c3cc(Cl)ccc3n1)C2 [Example 91] | < 5 µM | 
N#Cc1cc(N2CCC[C@@H](C(=O)NCc3cnccn3)C2)nc2ccc(Br)cc12 [Example 141] |  | < 5 µM
Cn1cc(-c2cc(C#N)c3cc(Cl)ccc3n2)cn1 [Example 86] |  | 5 to 15 µM
CC(=O)N1CCN(c2cc(C#N)c3cc(Cl)ccc3n2)CC1 [Example 35] |  | < 5 µM
C[C@@H]1CCC[C@H](C)N1c1cc(C#N)c2cc(C(C)(C)O)ccc2n1 [Example 148] |  | < 5 µM
CNC(=O)C1CCN(c2cc(C#N)c3cc(Cl)ccc3n2)CC1 [Example 57] |  | < 5 µM
N#Cc1cc(N2CCSCC2)nc2ccc(Cl)cc12 [Example 92] |  | < 5 µM
N#Cc1cc(N2CC3CC(C2)N3)nc2ccc(Cl)cc12 [Example 73] | < 5 µM | 
N#Cc1cc(-c2cccnc2)nc2ccc(Cl)cc12 [Example 87] |  | 15 to 30 µM
N#Cc1cc(N2CCC[C@@H](N)C2)nc2ccc(Cl)cc12 [Example 85] |  | 5 to 15 µM
COCCN(C)C(=O)[C@H]1CCCN(c2cc(C#N)c3cc(Br)ccc3n2)C1 [Example 112] |  | < 5 µM
N#Cc1cc(N2CCC[C@H](NC(=O)c3ccncn3)C2)nc2ccc(Br)cc12 [Example 126] |  | < 5 µM
N#Cc1cc(N2CCCC23CCOC3)nc2ccc(Br)cc12 (centres unmarked) [Example 145] |  | < 5 µM
N#Cc1cc(N2CC[C@@H](O)C2)nc2ccc(Cl)cc12 [Example 11] |  | < 5 µM
N#Cc1cc(N2CCC(NS(N)(=O)=O)CC2)nc2ccc(Br)cc12 [Example 132] |  | < 5 µM
N#Cc1cc(N2CCCCC2)nc2cc(F)c(Cl)cc12 [Example 89] |  | < 5 µM
N#Cc1cc(NC2CCCN(C(N)=O)C2)nc2ccc(Cl)cc12 (centres unmarked) [Example 37] |  | < 5 µM
C#CCCC1(CCNc2cc(C#N)c3cc(Cl)ccc3n2)N=N1 [Example 111] |  | < 5 µM
Cc1ccc2nc(N3CCCCC3)cc(C#N)c2c1 [Example 18] |  | 5 to 15 µM
CN(Cc1ccccc1)C(=O)C1CCN(c2cc(C#N)c3cc(Br)ccc3n2)CC1 [Example 125] |  | < 5 µM
N#Cc1cc(N2CCOCC2C2CC2)nc2ccc(Cl)cc12 (centres unmarked) [Example 131] |  | < 5 µM
CN(Cc1ccccc1)C(=O)[C@H]1CCCN(c2cc(C#N)c3cc(Br)ccc3n2)C1 [Example 116] |  | < 5 µM
CN(C)c1cc(C#N)c2ccc(Cl)cc2n1 [Example 27] |  | < 5 µM

SMILES | IC50 | IC50 [1]
CC(O)c1ccc2nc(N3[C@H](C)CCC[C@@H]3C)cc(C#N)c2c1 (some centres unmarked) [Example 147] |  | < 5 µM
N#Cc1cc(N2CCCC2)nc2cc(F)c(Cl)cc12 [Example 71] |  | < 5 µM
Cn1ccnc1C1CCCN(c2cc(C#N)c3cc(Br)ccc3n2)C1 (centres unmarked) [Example 151] |  | < 5 µM
N#Cc1cc(N2CC[C@H](N)C2)nc2ccc(Cl)cc12 [Example 66] |  | < 5 µM
N#Cc1cc(N2CCC[C@H](NCC3CC3)C2)nc2ccc(Br)cc12 [Example 108] |  | < 5 µM
CN(C)c1cc(C#N)c2cc(Cl)ccc2n1 [Example 5] |  | < 5 µM
CN1CCN(c2cc(C#N)c3cc(Cl)ccc3n2)CC1 [Example 52] |  | > 30 µM
CNC(=O)[C@H]1CCCN(c2cc(C#N)c3cc(Cl)ccc3n2)C1 [Example 79] |  | < 5 µM
CC1(NS(C)(=O)=O)CCN(c2cc(C#N)c3cc(Br)ccc3n2)CC1 [Example 118] |  | < 5 µM
Cc1cnc(CNc2cc(C#N)c3cc(Cl)ccc3n2)o1 [Example 28] |  | > 30 µM
N#Cc1cc(N2CCC(NCc3ccccc3)CC2)nc2ccc(Br)cc12 [Example 113] |  | < 5 µM
N#Cc1cc(N2CCC[C@H](C(=O)NCC3CC3)C2)nc2ccc(Br)cc12 [Example 103] |  | < 5 µM
Cn1cc(C(=O)N[C@H]2CCCN(c3cc(C#N)c4cc(Br)ccc4n3)C2)cn1 [Example 128] |  | < 5 µM
CNC(=O)C(CO)Nc1cc(C#N)c2cc(Cl)ccc2n1 (centres unmarked) [Example 39] |  | > 30 µM
N#Cc1cc(NCc2ccccn2)nc2ccc(Cl)cc12 [Example 42] |  | < 5 µM
N#Cc1cc(NC2CC2)nc2ccc(Cl)cc12 [Example 51] |  | > 30 µM
N#Cc1cc(N2CCCCC2)nc2ccc(Br)cc12 [Example 21] |  | < 5 µM
N#Cc1cc(N2CCC(C(=O)N3CCOCC3)CC2)nc2ccc(Br)cc12 [Example 104] |  | < 5 µM
NC(=O)c1cc(N2CCC(NCCO)CC2)nc2ccc(Cl)cc12 [Example 6] |  | > 30 µM
CC(=O)N[C@]1(C)CCCN(c2cc(C#N)c3cc(Br)ccc3n2)C1 [Example 121] |  | < 5 µM
Cc1ccc2nc(N3CCC(N)CC3)cc(C#N)c2c1 [Example 17] |  | 5 to 15 µM
C[C@@H]1CCC[C@H](C)N1c1cc(C#N)c2cc(Br)ccc2n1 [Example 96] |  | < 5 µM
N#Cc1cc(N2CCC[C@H](N3CCCC3=O)C2)nc2ccc(Br)cc12 [Example 109] |  | < 5 µM

SMILES | IC50 | IC50 [1]
N#Cc1cc(NC2CCN(Cc3cccnc3)CC2)nc2ccc(Cl)cc12 [Example 44] |  | < 5 µM
Cc1ccc2nc(N(C)C)cc(C#N)c2c1 [Example 19] |  | < 5 µM
N#Cc1cc(N2CC[C@@H](C(=O)N3CCCC3)C2)nc2ccc(Br)cc12 [Example 143] |  | < 5 µM
N#Cc1cc(N2CCC[C@H](NC(=O)C3CC3)C2)nc2ccc(Br)cc12 [Example 106] |  | < 5 µM
CN(C)C(=O)C1CCN(c2cc(C#N)c3cc(Cl)ccc3n2)C1 (centres unmarked) [Example 69] |  | < 5 µM
N#Cc1cc(N2CCCC(c3ncccn3)C2)nc2ccc(Br)cc12 (centres unmarked) [Example 152] |  | < 5 µM
C[C@@H]1CCC[C@H](C)N1c1cc(C#N)c2cc(CO)ccc2n1 [Example 149] |  | < 5 µM
Cn1c(CNc2cc(C#N)c3cc(Cl)ccc3n2)nc2cccnc21 [Example 32] |  | > 30 µM
C#CCCC1(CCNC2CCN(c3cc(C#N)c4cc(Cl)ccc4n3)CC2)N=N1 [Example 88] |  | < 5 µM
N#Cc1cc(N2CCCCC2)nc2ccc(F)cc12 [Example 24] |  | < 5 µM
CS(=O)(=O)C1CCN(c2cc(C#N)c3cc(Cl)ccc3n2)CC1 [Example 55] |  | 5 to 15 µM
N#Cc1cc(N2CCC(C(N)=O)CC2)nc2ccc(Cl)cc12 [Example 56] |  | 5 to 15 µM
N#Cc1cc(N2CCC(N)CC2)nc2ccc(Br)cc12 [Example 20] |  | < 5 µM
N#Cc1cc(NCC(O)c2ccco2)nc2ccc(Cl)cc12 (centres unmarked) [Example 30] |  | 5 to 15 µM
N#Cc1c(Cl)c(N2CC[C@@H](O)C2)nc2ccc(Cl)cc12 [Example 90] |  | < 5 µM
N#Cc1cc(Cl)nc2ccc(Cl)cc12 [Example 15] |  | > 30 µM
C[C@@H]1CCC[C@H](C)N1c1cc(C#N)c2cc(C#N)ccc2n1 [Example 140] |  | < 5 µM
N#Cc1cc(N2C3CNCC2C3)nc2ccc(Cl)cc12 [Example 72] | < 5 µM | 
N#Cc1cc(N2CC(CO)C2)nc2ccc(Cl)cc12 [Example 34] |  | 5 to 15 µM
N#Cc1cc(N2CCC[C@H](NC(=O)c3c[nH]cn3)C2)nc2ccc(Br)cc12 [Example 136] |  | < 5 µM
Cn1cnc(C(=O)N[C@H]2CCCN(c3cc(C#N)c4cc(Br)ccc4n3)C2)c1 [Example 130] |  | < 5 µM
N#Cc1cc(N2CCCC(n3cccn3)C2)nc2ccc(Br)cc12 (centres unmarked) [Example 153] |  | < 5 µM
